The test system of one test is C. albicans wild-type. Briefly: microbe, parasite or virus in culture. The arrangement: species or system whole yeast cells; macro tube broth dilution MIC in YEPD at 30 C, visual clearness of medium. To be noted: Candida albicans, 48 h, YEPD medium.
Test [1] relates to Candida albicans C. a.^g (Table 4). Briefly: microbe, parasite or virus in culture. The arrangement: species or system yeast; tube dilution MIC in YEPD (± 1.2 M sorbitol), complete growth inhibition by turbidity. To be noted: 48 h, YEPD + 1.2 M sorbitol. The method, then: Standard YEPD (Yeast Extract, Peptone, Dextrose) ([Sherman, 1990]), YEPD+S (YEPD with 1.2M sorbitol), YES (Yeast Extract, Dextrose and Supplements of Adenine, Histidine, Leucine, Uracil and Lysine) ([Alfa et al., 1993]) and YES+S (YES with 1.2 M sorbitol) ([Ribas et al., 1991]; [Ishiguro et al., 1997]), media were used for determination of MIC values of the tested compounds. A stock solution of 10 mg/ml of each tested compounds was prepared in DMSO and serial dilutions in DMSO were prepared. The final concentration of DMSO was 2% in the YEPD medium. […] The serial dilutions of compounds were dispensed into test tubes with 1 ml of YEPD or YEPD+S to make final concentrations of 200, 100, 50, 25, 12.5, 6.26, 3.125, 1.6, 0.8 and 0.4 μg/ml. The tested yeast strains were previously grown in YEPD, YEPD+S, YES or YES+S agar plates at 30°C for 48 h. For inoculation of YEPD or YEPD+S macro test tubes a suspension of tested fungus was produced with 10^5 cfu/ml (cfu - colony forming unit). 10 μl of suspension was used for inoculation of each tube. After 48 h incubation at 30°C the tubes were checked. The MIC value is the lowest concentration of the tested compound that could inhibit the fungal growth and the medium remained clear. From each tube 10 μl culture was plated on YEPD agar medium to check the contamination. The MIC tests were carried out in three parallels. Micro-culture assays of large numbers of samples were analyzed as described) ([Martins et al., 2011]). Essentially early log-phase cells were grown in YEPD, YEPD+S, YES or YES+S (1.2 M sorbitol) medium at 30°C, and diluted to cell density of 4 X 10^6 cells/ml in YEPD, YEPD+S, YES or YES+S medium and aliquots of 100 μl were dispensed into each small test tube (3 ml test tube size). Then, another 100 μl of YEPD, YEPD+S, YES or YES+S with the corresponding dilution of each compound at 2X concentration (4% DMSO) was added. The final volume was 200 μl, with the cells diluted to of 2 X 10^6 cells/ml and each compound diluted to 1X final concentration, containing increasing concentrations of antifungal (0, 1, 2, 5, 10, 20, 50, 100 and 200 μg/ml) or an equivalent volume of solvent (2% DMSO). The cells were grown at 30°C in an orbital roller and turbidity was analyzed after 24 and 48 h of incubation. The MIC was determined as the minimal concentration of tested compound that produced complete cell growth inhibition and kept the medium clear. The MIC values were calculated from at least three independent experiments.

`O=c1oc2ccc3ccccc3c2cc1-c1ccccc1CO` [compound 12]: the MIC with C. albicans wild-type (C. albicans strain f) is over 200 µg/mL; against C. albicans wild-type (C. albicans strain g), over 200 µg/mL; against C. albicans wild-type (C. albicans strain h) it was over 200 µg/mL; in test [1], 200 µg/mL.

With `O=c1oc2ccccc2cc1-c1ccccc1CO` [compound 15], the MIC in the test with C. albicans wild-type (C. albicans strain f) was over 100 µg/mL; in the test with C. albicans wild-type (C. albicans strain g), over 100 µg/mL; with C. albicans wild-type (C. albicans strain h), over 100 µg/mL; in test [1], over 200 µg/mL.
